Data on seven substances can be found in patent US20050019746A1, “Apoptosis-related kinase/GPCRs” (EiRx Therapeutics Limited, priority 2003, published 2005).

In one data set the test system is A549 cells. Put plainly: Anchorage Independence/Soft Agar Assay, A549. Also noted: PERCENTAGE SURVIVAL RELATIVE TO MS, A549, n = 2: tested at 2 µg. It counts as cell-based, human. The settings on record: soft agar; for PERCENTAGE SURVIVAL RELATIVE TO MS, A549, n = 1: experiment n = 1; for PERCENTAGE SURVIVAL RELATIVE TO MS, A549, n = 2: experiment n = 2. The gist of the method: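 Cells were transfected for 4 h with 2 μg siRNA against target genes, then seeded at 5×10^4 cells/well in 0.05% agar/medium and grown 12/14 days at 37 °C, 5% CO2. Crystal violet-stained colonies were counted at 4× and morphology assessed; survival expressed relative to missense siRNA control.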

The next data set deals with DU145, PC3, HCT116 cells. Put plainly: Annexin V apoptosis assay (Guava Nexin). The note with it: DU145, HCT116 or PC3, siRNA 50 nM, relative to mock transfected, FIG. 34. The class given is cell-based, human. The source says: Apoptosis or programmed cell death is an important and active regulatory pathway of cell growth and proliferation. Cells respond to specific induction signals by initiating intracellular processes that result in characteristic physiological changes. Among these are externalisation of phosphotidylserine (PS) to the cell surface, cleavage and degradation of specific cellular proteins, compaction and fragmentation of nuclear chromatin and loss of membrane integrity (in late stages). Annexin V is a calcium-dependant phospholipid binding protein with a high affinity for phosphotidyl serine (PS), a membrane component normally localised to the internal face of the cell membrane. Early in the apoptotic pathway molecules of PS are translocated to the outer surface of the cell membrane where Annexin V can readily bind to them.
Annexin V assays are performed using the Guava Nexin Assay, which utilises Annexin V-PE to detect PS on the external membrane of apoptotic cells. The cell impermeant dye 7-AAD is included in the assay as an indicator of membrane structural integrity as it is excluded from live and early apoptotic cells but permeates late stage apoptotic and dead cells. Assays are performed using a Guava Technologies Personal Cytometer and Guava Nexin Kit (catalogue no. 4500-0010, Guava Technologies Inc) using a modification of the manufacturer's protocol, where cells are transfected with siRNA in 24-well plates and assays performed at 24, 48 and 72 hours post-transfection.
Cells (DU145, PC3 & HCT116) are plated at a density of 20000 cells/well in 500 μl medium in 24-well plates and incubated overnight at 37° C. in a humidified atmosphere containing 5% CO2. […]
The 500 μl of media is decanted from the cells and combined with 150 μl of PBS used to wash them. […] Then, 450 μl 1× Nexin Buffer is added to the cells and the cell population analysed using the Guava Personal Cytometer following the manufacturer's instructions. […] The total number of early and late apoptotic cells is measured and the relative number of apoptotic cells calculated. […]

“siRNA MKNK: sense UACAUGGCCCCUGAGGUAGtt, antisense CUACCUCAGGGGCCAUGUAtt (sense UACAUGGCCCCUGAGGUAGTT; antisense CUACCUCAGGGGCCAUGUATT; chemistry not given here)”: in the data set with A549 cells, the “PERCENTAGE SURVIVAL RELATIVE TO MS, A549, n = 1” value came out at 85% and the “PERCENTAGE SURVIVAL RELATIVE TO MS, A549, n = 2” value was 21.6%. Turning to “siRNA PSKH1: sense GAACCUGCACCGCUCCAUAtt, antisense UAUGGAGCGGUGCAGGUUCtt (sense GAACCUGCACCGCUCCAUATT; antisense UAUGGAGCGGUGCAGGUUCTT; chemistry not given here)”, in the data set on A549 cells, the “PERCENTAGE SURVIVAL RELATIVE TO MS, A549, n = 1” value is 65.8% and the “PERCENTAGE SURVIVAL RELATIVE TO MS, A549, n = 2” value was found to be 32.5%. As for “siRNA ROCK: siRNA duplex, sense UACAUGCCUGGUGGAGAUCtt, antisense GAUCUCCACCAGGCAUGUAtt; same in Tables 9 and 11 (sense UACAUGCCUGGUGGAGAUCTT; antisense GAUCUCCACCAGGCAUGUATT; chemistry not given here)”, in the data set with DU145, PC3, HCT116 cells, the “apoptosis by Annexin V staining” value was “undergo apoptosis”. Still for that read-out and setting: the entry for “siRNA NTKL: siRNA duplex, sense UGUGGAGCUGAUGAAGCACtt, antisense GUGCUUCAUCAGCUCCACAtt; same in Tables 9 and 11 (sense UGUGGAGCUGAUGAAGCACTT; antisense GUGCUUCAUCAGCUCCACATT; chemistry not given here)” is “undergo apoptosis”; for “siRNA EKI: siRNA duplex, sense GCACUGGAUCCAAAGCAUGtt, antisense CAUGCUUUGGAUCCAGUGCtt; same in Tables 9 and 11 (sense GCACUGGAUCCAAAGCAUGTT; antisense CAUGCUUUGGAUCCAGUGCTT; chemistry not given here)” it is “undergo apoptosis”. As to “siRNA Survivin: positive control siRNA, sense GAACUGGCCCUUCUUGGAGtt, antisense CUCCAAGAAGGGCCAGUUCtt (sense GAACUGGCCCUUCUUGGAGTT; antisense CUCCAAGAAGGGCCAGUUCTT; chemistry not given here) [reference compound]”, in the data set with A549 cells, the “PERCENTAGE SURVIVAL RELATIVE TO MS, A549, n = 1” value is recorded as 53% and the “PERCENTAGE SURVIVAL RELATIVE TO MS, A549, n = 2” value is reported as 17.7%. On to “siRNA MPSK1: sense GGGUUAUGCCCACAGAGACtt, antisense GUCUCUGUGGGCAUAACCCtt (sense GGGUUAUGCCCACAGAGACTT; antisense GUCUCUGUGGGCAUAACCCTT; chemistry not given here)”, for which, in the data set with A549 cells, the “PERCENTAGE SURVIVAL RELATIVE TO MS, A549, n = 1” value was 59.4% and the “PERCENTAGE SURVIVAL RELATIVE TO MS, A549, n = 2” value was 19.5%.
